In patent US9371280B2, “Substituted pyrrolidine-2-carboxamides” (Hoffmann-La Roche Inc., priority 2012, dated 2016):
Structures can show the parent of a compound that is named as a salt.

Biological target: interaction between p53 and MDM2 proteins (recombinant GST-tagged MDM2) (Homo sapiens, UniProt Q00987)
Experiment: HTRF assay of inhibition of the p53-MDM2 interaction (GST-MDM2 / biotinylated p53 peptide);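 note: FRET read-out from Eu-labelled anti-GST antibody to streptavidin-APC, with 90 nM N-terminally biotinylated p53 peptide and 160 ng/ml GST-MDM2 in Tris-borate saline containing 1 mM DTT, 384-well format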
Assay type: binding
Settings: HTRF, 0.02% BSA, 37° C. 1 h
Description: The ability of the compounds to inhibit the interaction between p53 and MDM2 proteins was measured by an HTRF (homogeneous time-resolved fluorescence) assay in which recombinant GST-tagged MDM2 binds to a peptide that resembles the MDM2-interacting region of p53 (Lane et al.). Binding of GST-MDM2 protein and p53-peptide (biotinylated on its N-terminal end) is registered by the FRET (fluorescence resonance energy transfer) between Europium (Eu)-labeled anti-GST antibody and streptavidin-conjugated Allophycocyanin (APC).
Test is performed in black flat-bottom 384-well plates (Costar) in a total volume of 40 uL containing: 90 nM biotinylate peptide, 160 ng/ml GST-MDM2, 20 nM streptavidin-APC (PerkinElmerWallac), 2 nM Eu-labeled anti-GST-antibody (PerkinElmerWallac), 0.02% bovine serum albumin (BSA), 1 mM dithiothreitol (DTT) and 20 mM Tris-borate saline (TBS) buffer as follows: Add 10 uL of GST-MDM2 (640 ng/ml working solution) in reaction buffer to each well. […] Incubate at 37° C. for 1 h.

interaction between p53 and MDM2 proteins (recombinant GST-tagged MDM2), sequence (Q00987 whole entry): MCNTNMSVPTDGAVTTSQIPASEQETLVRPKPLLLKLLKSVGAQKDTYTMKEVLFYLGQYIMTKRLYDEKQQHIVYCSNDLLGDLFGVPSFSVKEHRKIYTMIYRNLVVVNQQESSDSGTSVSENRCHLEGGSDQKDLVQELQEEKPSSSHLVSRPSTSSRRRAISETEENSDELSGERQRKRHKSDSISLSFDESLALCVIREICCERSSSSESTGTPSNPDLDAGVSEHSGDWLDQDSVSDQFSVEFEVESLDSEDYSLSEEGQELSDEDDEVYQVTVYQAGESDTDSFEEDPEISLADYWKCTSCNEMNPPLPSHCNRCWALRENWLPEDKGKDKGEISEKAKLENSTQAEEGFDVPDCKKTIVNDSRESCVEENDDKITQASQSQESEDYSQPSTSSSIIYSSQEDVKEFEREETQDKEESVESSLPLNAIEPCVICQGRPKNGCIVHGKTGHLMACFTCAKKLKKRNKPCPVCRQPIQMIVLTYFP

IC50	Compound
8.34 nM	COc1cc(C(=O)OCCOCCOCCO)ccc1NC(=O)[C@@H]1N[C@@H](CC(C)(C)C)[C@](C#N)(c2ccc(Cl)cc2F)[C@H]1c1cccc(Cl)c1F [Example 47, 4-{[(2R,3S,4R,5S)-4-(4-Chloro-2-fluoro-phenyl)-3-(3-chloro-2-fluoro-phenyl)-4-cyano-5-(2,2-dimethyl-propyl)-pyrrolidine-2-carbonyl]-amino}-3-methoxy-benzoic acid 2-[2-(2-hydroxy-ethoxy)-ethoxy]-ethyl ester, hydrochloride]
13.5 nM	COCCOCCOCCOC(=O)c1ccc(NC(=O)[C@@H]2N[C@@H](CC(C)(C)C)[C@](C#N)(c3ccc(Cl)cc3F)[C@H]2c2cccc(Cl)c2F)c(OC)c1 [Example 48, 4-{[(2R,3S,4R,5S)-4-(4-Chloro-2-fluoro-phenyl)-3-(3-chloro-2-fluoro-phenyl)-4-cyano-5-(2,2-dimethyl-propyl)-pyrrolidine-2-carbonyl]-amino}-3-methoxy-benzoic acid 2-[2-(2-methoxy-ethoxy)-ethoxy]-ethyl ester, hydrochloride]
13.9 nM	COCCOCCOCCOCCOC(=O)c1ccc(NC(=O)[C@@H]2N[C@@H](CC(C)(C)C)[C@](C#N)(c3ccc(Cl)cc3F)[C@H]2c2cccc(Cl)c2F)c(OC)c1 [Example 49, 4-{[(2R,3S,4R,5S)-4-(4-Chloro-2-fluoro-phenyl)-3-(3-chloro-2-fluoro-phenyl)-4-cyano-5-(2,2-dimethyl-propyl)-pyrrolidine-2-carbonyl]-amino}-3-methoxy-benzoic acid 2-{2-[2-(2-methoxy-ethoxy)-ethoxy]-ethoxy}-ethyl ester, hydrochloride]
9.13 nM	COc1cc(C(=O)OCCOCCOCCOCCOCCO)ccc1NC(=O)[C@@H]1N[C@@H](CC(C)(C)C)[C@](C#N)(c2ccc(Cl)cc2F)[C@H]1c1cccc(Cl)c1F [Example 50, 4-{[(2R,3S,4R,5S)-4-(4-Chloro-2-fluoro-phenyl)-3-(3-chloro-2-fluoro-phenyl)-4-cyano-5-(2,2-dimethyl-propyl)-pyrrolidine-2-carbonyl]-amino}-3-methoxy-benzoic acid 2-(2-{2-[2-(2-hydroxy-ethoxy)-ethoxy]-ethoxy}-ethoxy)-ethyl ester, hydrochloride]
10 nM	COCCOCCOCCOCCOCCOC(=O)c1ccc(NC(=O)[C@@H]2N[C@@H](CC(C)(C)C)[C@](C#N)(c3ccc(Cl)cc3F)[C@H]2c2cccc(Cl)c2F)c(OC)c1 [Example 51, 4-{[(2R,3S,4R,5S)-4-(4-Chloro-2-fluoro-phenyl)-3-(3-chloro-2-fluoro-phenyl)-4-cyano-5-(2,2-dimethyl-propyl)-pyrrolidine-2-carbonyl]-amino}-3-methoxy-benzoic acid 2-(2-{2-[2-(2-methoxy-ethoxy)-ethoxy]-ethoxy}-ethoxy)-ethyl ester, hydrochloride]
9.95 nM	COc1cc(C(=O)OCCOCCOCCOCCOCCOCCO)ccc1NC(=O)[C@@H]1N[C@@H](CC(C)(C)C)[C@](C#N)(c2ccc(Cl)cc2F)[C@H]1c1cccc(Cl)c1F [Example 52, 4-{[(2R,3S,4R,5S)-4-(4-Chloro-2-fluoro-phenyl)-3-(3-chloro-2-fluoro-phenyl)-4-cyano-5-(2,2-dimethyl-propyl)-pyrrolidine-2-carbonyl]-amino}-3-methoxy-benzoic acid 2-[2-(2-{2-[2-(2-hydroxy-ethoxy)-ethoxy]-ethoxy}-ethoxy)-ethoxy]-ethyl ester, hydrochloride]
12.7 nM	COC(=O)CC[C@@H](NC(=O)c1ccc(NC(=O)[C@@H]2N[C@@H](CC(C)(C)C)[C@](C#N)(c3ccc(Cl)cc3F)[C@H]2c2cccc(Cl)c2F)c(OC)c1)C(=O)OC [Example 53, (R)-2-(4-{[(2R,3S,4R,5S)-4-(4-Chloro-2-fluoro-phenyl)-3-(3-chloro-2-fluoro-phenyl)-4-cyano-5-(2,2-dimethyl-propyl)-pyrrolidine-2-carbonyl]-amino}-3-methoxy-benzoylamino)-pentanedioic acid dimethyl ester, hydrochloride]
4.55 nM	COc1cc(C(=O)N[C@H](CCC(=O)O)C(=O)O)ccc1NC(=O)[C@@H]1N[C@@H](CC(C)(C)C)[C@](C#N)(c2ccc(Cl)cc2F)[C@H]1c1cccc(Cl)c1F [Example 54, (R)-2-(4-{[(2R,3S,4R,5S)-4-(4-Chloro-2-fluoro-phenyl)-3-(3-chloro-2-fluoro-phenyl)-4-cyano-5-(2,2-dimethyl-propyl)-pyrrolidine-2-carbonyl]-amino}-3-methoxy-benzoylamino)-pentanedioic acid, hydrochloride]
9.1 nM	COc1cc(C(=O)N(C)C[C@H](O)[C@@H](O)[C@H](O)[C@H](O)CO)ccc1NC(=O)[C@@H]1N[C@@H](CC(C)(C)C)[C@](C#N)(c2ccc(Cl)cc2F)[C@H]1c1cccc(Cl)c1F [Example 55, (2R,3S,4R,5S)-4-(4-Chloro-2-fluoro-phenyl)-3-(3-chloro-2-fluoro-phenyl)-4-cyano-5-(2,2-dimethyl-propyl)-pyrrolidine-2-carboxylic acid {2-methoxy-4-[methyl-((2S,3R,4R,5R)-2,3,4,5,6-pentahydroxy-hexyl)-carbamoyl]-phenyl}-amide, hydrochloride]
9.88 nM	COc1cc(C(=O)N[C@@H]2[C@@H](O)[C@H](O)[C@@H](CO)O[C@@H]2O)ccc1NC(=O)[C@@H]1N[C@@H](CC(C)(C)C)[C@](C#N)(c2ccc(Cl)cc2F)[C@H]1c1cccc(Cl)c1F [Example 56, (2R,3S,4R,5S)-4-(4-Chloro-2-fluoro-phenyl)-3-(3-chloro-2-fluoro-phenyl)-4-cyano-5-(2,2-dimethyl-propyl)-pyrrolidine-2-carboxylic acid [2-methoxy-4-((2S,3R,4R,5S,6R)-2,4,5-trihydroxy-6-hydroxymethyl-tetrahydro-pyran-3-ylcarbamoyl)-phenyl]-amide, hydrochloride]
17.2 nM	COc1cc(C(=O)OCCOCCOCCOCCO)ccc1NC(=O)[C@@H]1N[C@@H](CC(C)(C)C)[C@](C#N)(c2ccc(Cl)cc2F)[C@H]1c1cccc(Cl)c1F [Example 57, 4-{[(2R,3S,4R,5S)-4-(4-Chloro-2-fluoro-phenyl)-3-(3-chloro-2-fluoro-phenyl)-4-cyano-5-(2,2-dimethyl-propyl)-pyrrolidine-2-carbonyl]-amino}-3-methoxy-benzoic acid 2-{2-[2-(2-hydroxy-ethoxy)-ethoxy]-ethoxy}-ethyl ester, hydrochloride]
11.4 nM	COc1cc(C(=O)OCCN2CCN(CCO)CC2)ccc1NC(=O)[C@@H]1N[C@@H](CC(C)(C)C)[C@](C#N)(c2ccc(Cl)cc2F)[C@H]1c1cccc(Cl)c1F [Example 61, 4-{[(2R,3S,4R,5S)-4-(4-Chloro-2-fluoro-phenyl)-3-(3-chloro-2-fluoro-phenyl)-4-cyano-5-(2,2-dimethyl-propyl)-pyrrolidine-2-carbonyl]-amino}-3-methoxy-benzoic acid 2-[4-(2-hydroxy-ethyl)-piperazin-1-yl]-ethyl ester]

Compound	IC50
COc1cc(C(=O)OCCN2CCN(CCOC(=O)c3ccc(NC(=O)[C@@H]4N[C@@H](CC(C)(C)C)[C@](C#N)(c5ccc(Cl)cc5F)[C@H]4c4cccc(Cl)c4F)c(OC)c3)CC2)ccc1NC(=O)[C@@H]1N[C@@H](CC(C)(C)C)[C@](C#N)(c2ccc(Cl)cc2F)[C@H]1c1cccc(Cl)c1F [Example 60, 4-{[(2R,3S,4R,5S)-4-(4-Chloro-2-fluoro-phenyl)-3-(3-chloro-2-fluoro-phenyl)-4-cyano-5-(2,2-dimethyl-propyl)-pyrrolidine-2-carbonyl]-amino}-3-methoxy-benzoic acid, 2-[4-(2-hydroxy-ethyl)-piperazin-1-yl]-ethyl ester, dimer]	211 nM
